Source: patent US20240299393A1, “SMALL MOLECULE DISRUPTORS OF PROTEIN INTERACTIONS IN HISTONE DEACETYLASE COMPLEXES” (Dana-Farber Cancer Institute, Inc., priority 2021, published 2024)
Where “and” joins values, the source holds several entries; their conditions need not be identical. Equal entries are not always repeated. Entries after “also recorded” stand apart in the source; their conditions may differ. Values belong to the compound of their own block, whether it stands above or below them. Square brackets hold non-standard residues; d marks the D form. Peptide text beside a SMILES is read from it. ξ: configuration not given here. Aoe(9ξ) = N[C@@H](CCCCCC(=O)C1CO1)C(=O)O; dPip = O=C(O)[C@H]1CCCCN1

Tests used:
[1] = tested on: CDKN1A, SOCS3, EGR1 in SK-N-BE(2)-C cells; test: RT-qPCR of SIN3 HDAC complex-regulated genes in neuroblastoma cells; assay type: cell-based, human; details: 100 μM for 16 h
Experimental: (§1) The RT-qPCR protocol used in this study was described elsewhere [Choi et al 2012]. Culture, RNA extraction, and compound treatments for neuroblastoma SK-N-BE(2)-C cells are described below. Approximately 1 μg RNA per sample was used for reverse transcription. Using a thermocycler, RNA was denatured in the presence of 0.2 μg 18 mer oligo-dT by heating the plate at 65° C. for 10 min. The plate was then immediately cooled down on ice to anneal oligo-dT on the poly-A tail of mRNA. A master mix of AffinityScript Multiple Temperature Reverses Transcriptase (Agilent, cat #600107) was prepared following the manufacturer's protocol, and mixed with RNA samples previously annealed with the oligo-dT. The plate was incubated at 42° C. for 2 h to generate cDNAs from mRNA templates. The reverse transcriptase was then denatured by heating the plate at 70° C. for 15 min. The resulting cDNA was diluted (1:20) in sterile, ultra pure water (ddH2O), and stored at −20° C. until used for qPCR. To measure gene expression, the diluted cDNA was mixed with 5 μL PowerUp SYBR Green master mix (Applied Biosystems, cat #A25743), and the mix of primers (forward+reverse, see FIG. 31; 0.3 μM final concentration) for a total volume of 10 μL. Two technical replicates were generated per cDNA sample in the 384-well PCR plate (Applied Biosystems, cat #4343370). The plate was tightly sealed with optical adhesive film (Applied Biosystems, cat #4311971). Quantitative PCR was conducted with a QuantStudio real-time PCR system from Applied Biosystems, with the following settings: 50° C./2 min, 95° C./10 min, 96° C./15 s/40 cycles, and 60° C./30 s. Dissociation curves were checked for each PCR product, to assess the specificity of the PCR amplicons.
SK-N-BE(2)-C cells were maintained in cell culture flasks supplemented with 10% Fetal bovine serum (FBS) and penicillin/streptomycin (PS) in Dulbecco's Modified Eagle's Medium (DMEM). The cells were maintained at a log phase in a humidified 5% CO2 incubator at 37° C. For testing the effect of the compounds on gene expression, approximately 0.1 million cells were seeded on each well of 24-well cell culture plates, with 1 mL 10% FBS+PS+DMEM. 24 h after seeding the cells, they were exposed to the compounds or DMSO control for 16 h in a humidified 5% CO2 incubator at 37° C., before harvesting them.
Cells were harvested for RNA extraction using Nucleospin 96 RNA (Macherey-Nagel, cat #740709.4) following manufacturer's protocol. Briefly, supernatant was removed, and the cells were gently washed with 1× phosphate-buffered saline. 300 μL lysis buffer were added to each well of 24 well cell culture plates. Roughly 0.1 million cells were used for harvesting each RNA sample. RNA concentration was measured for all purified RNA samples using a nanodrop spectrophotometer.

[2] = molecular target: Sc Sin3 PAH2-Ume6 SID (TAMRA-labeled) interaction (Saccharomyces cerevisiae, UniProt P22579); test: biochemical
Experimental: Symbols represent individual data points (A) or means with SEM, and lines fitted curves.
IC50 determination for unlabeled Ume6 SID, E6, E6R and E6S: the concentrations of FITC-Ume6 SID (30 nM), and GST-Sin3 PAH2 (3 μM) were fixed and the compounds were titrated with an HP D300 (Hewlett-Packard, CA) to the assay plate.

[3] = molecular target: Sin3 PAH2/Ume6 SID interaction (Saccharomyces cerevisiae, UniProt P22579); test: biochemical
Experimental: IC50 determination for unlabeled Ume6 SID, E6, E6R and E6S: the concentrations of FITC-Ume6 SID (30 nM), and GST-Sin3 PAH2 (3 μM) were fixed and the compounds were titrated with an HP D300 (Hewlett-Packard, CA) to the assay plate. The assayed concentrations are given here as μM concentrations: 6, 6.6, 8.6, 11.2, 14.7, 19.3, 25.3, 33.1, 43.4, 56.9, 74.5, 97.7, 128, 167.7, 219.7, 287.9, 377.2, 494.2, 647.5 and 848.3.
Using a fluorescence polarization (FP) assay, the interaction between the two minimal domains of Sin3 and Ume6 reported in the literature was measured [Washburn & Esposito 2001, Le Guezennec et al 2006]: the paired amphipathic helix 2 (PAH2; residues 402-473) and the Sin3-interacting domain (SID; residues 516-531), respectively (FIG. 6A). In this FP setting, Sin3 PAH2 is N-terminally fused to a glutathione S-transferase (GST) tag while Ume6 SID is labeled with a fluorescein isothiocyanate (FITC) probe at the N-terminal position. […] The binding affinity of this interaction was evaluated at 0.9 μM, as reflected by the calculated equilibrium dissociation constant, KD.
To examine inhibition of the Sin3-Ume6 interaction by E6 outside of potential interference from other cellular components, an in vitro fluorescence polarization (FP) assay was used.

[4] = tested on: human neuroblastoma SK-N-BE(2)-C xenograft; test: Neuroblastoma xenograft efficacy study; assay type: in vivo; details: E6R 50 mg/kg, SAHA 20 mg/kg
Experimental: Xenografts studies were performed at the TRACE PDX platform of the Leuven Cancer Institute (LKI) at KU Leuven-UZ Leuven. Treatment experiments included 24 NMRI-Foxlnu nude mice (Taconic) implanted with human neuroblastoma cell line SK-N-BE(2)-C(2 million cells/implant/mouse). Cells, tested for a full panel of murine pathogens (Impact profile I, IDEXX) prior to engraftment, were resuspended in 50% matrigel solution in PBS for injection in the mouse right flank. When tumors reached a volume of approximately 200 mm^3, mice were randomly assigned to vehicle (34% DMSO, 55% saline 0.9%, 5% ethanol, 5% kolliphor, 1% NaOH 1 M), E6R (50 mg/kg), or SAHA (20 mg/kg) treatment groups. Treatments were administered daily intraperitoneally for 10 days or until reaching human endpoint (i.e. tumor volume >1,500 mm^3). Tumors were measured daily with digital calipers, and volume was estimated as V=L×W×H×(π/6) (L: length; W: width; H: height). […] All data were analyzed using GraphPad Prism 8. Comparisons between the vehicle and treated groups were tested for statistical significance using […].

[5] = tested on: DOI-induced head-twitch response (HTR); details: literature reports; cited from earlier work
[6] = tested on: HDAC class I and II enzymes (live yeast cells, HeLa nuclear extract, semi-purified human HDAC1); test: HDAC-Glo I/II luminescence HDAC enzymatic assay; assay type: biochemical, S. cerevisiae; human; details: three HDAC sources
Experimental: The HDAC-Glo I/II screening system (Promega, cat #G6430) was adapted to measure the effect of compounds on the enzymatic activity of human and yeast HDAC sources. […] FLAG-HDAC1 was eluted from anti-FLAG beads before running the assay, using a FLAG peptide. Nuclear extracts from human HeLa cells were provided in the assay kit. HDAC enzymatic activity was measured following the manufacturer's protocol. Briefly, linear ranges of the assay were determined by measuring luminescence signals, in a serial dilution manner, for semi-purified human HDAC1, or live yeast cells, diluted in the HDAC-Glo I/II buffer. For HeLa nuclear extracts, the manufacturer provided this information in the assay kit. For the different HDAC sources, dilution factors corresponding to signals in the linear ranges were used. To test the effect of compounds (three or four replicates) on HDAC enzymatic activity, equal volumes of HDAC sources (5 μL), and inhibitors (5 μL) were added to the different wells of a white, flat bottom 384-well plate. The plate was then briefly centrifuged with a tabletop centrifuge, and gently shaken for 1 min at 700 rpm. The plate was tightly sealed to prevent evaporation, and incubated at room temperature for 1 h. […] Luminescence signals were measured using a TriStar luminometer from Berthold Technologies, with 1 s integration time per sample. […]

[7] = tested on: Rpd3-regulated genes (URS-URA3, INO1, IME2, CAR1, SPO13, TRK2); test: RT-qPCR of Rpd3-regulated genes in yeast; assay type: cell-based, S. cerevisiae
Experimental: After yeast cells reached OD600 nm ˜0.5 in 0.8-1 mL of YPD, they were grown for two more hours at room temperature before being centrifuged to remove supernatant and freezing pellets on dry ice. For compound treatments, yeast cells at OD600 nm˜0.5 in YPD were incubated at room temperature for two hours with DMSO (1-1.6%) or the desired compound (from 25 mM stock in 100% DMSO) in an 2 mL-tube for a final volume of 0.8 mL in YPD, before being centrifuged, washed and frozen as described above. Yeast cells were then harvested for RNA extraction using a RiboPure RNA Purification Kit (Invitrogen, cat #AM1926), which involves mechanical cell wall disruption, phenol extraction of the lysate, and RNA purification using glass fiber, and filter-based RNA purification columns. RNA concentration was measured for individually purified RNA samples using a NanoDrop spectrophotometer. A total of 1 μg RNA from each sample was used for reverse transcription following a published procedure [Choi, S. G. et al 2012].
as §1
Expression of gene X normalized to the control gene expression=k*1.96^(Ct^Control^−Ct^Test^) • where k is an arbitrary multiplier (k=1000 in this study), 1.96 is the PCR amplification efficiency constant, Ct is the cycle threshold, CtControl is the Ct value for the housekeeping gene used as control (UBC6 in yeast [Teste et al 2009]; RPS11 in human cells [Zhan et al 2014], and CtTest is the Ct value for the tested gene. Replicates corresponding to DMSO treatments or WT yeast cells were averaged and other data points normalized using those DMSO or WT values as references (i.e. expression relative to DMSO or WT). TAF10 in yeast or SNRPD3 in human cells were used as genes not known for being regulated by an HDAC complex (HDAC-unrelated genes).

[8] = tested on: cycloheximide (CYH) sensitivity; test: Yeast cycloheximide sensitivity at 37° C.; assay type: cell-based, S. cerevisiae
Experimental: For assessment of cycloheximide (CYH) sensitivity at 37° C., yeast cells with the cyh2^R genotype (FIG. 29) were first transformed with an empty pDEST-AD-TRP1-CYH2 plasmid (FIG. 30) before running the different experiments. Selection of the plasmid was maintained by culturing cells in SC-W medium.

[9] = tested on: Rpd3-sensitive acid phosphatase activity; test: Yeast acid phosphatase plate assay; assay type: cell-based, S. cerevisiae; details: phosphate-rich (high Pi) medium
Experimental: The acid phosphatase plate assay was implemented as previously described [To et al 1973, Loewith et al 2001], with minor modifications. Cells were grown on high Pi medium (see above) for 2 days, at 30° C. A staining solution containing 2 mg/mL of 1-naphtyl phosphate (Sigma, N5602) and 4 mg/mL fast blue B salt (Sigma, D9805) was then prepared in 50 mM sodium acetate buffer pH 4.0±0.1, and maintained at 50° C. for ˜30 min before being filtered. Meanwhile, a solution of 10 mg/mL (1% weight/volume) ultra pure low melting point (LMP) agarose (Invitrogen, 15517-022) was prepared in 50 mM sodium acetate buffer pH 4.0±0.1, by microwaving the suspension until complete dissolution of the powder. The volume of the agarose solution was checked and readjusted with 50 mM sodium acetate buffer pH 4.0±0.1. The agarose solution was then mixed with the filtered staining solution by vortexing briefly, and the resulting suspension was kept at 50° C. for ˜15 min. The solid agar plate on which cells grew for 2 days were then gently overlaid with the agarose-containing staining solution, allowing its gelification on top of the cells. A red coloring started to appear ˜2 min after covering cells with the solution.

[10] = Mouse liver microsome stability test; assay type: in vitro ADME; details: 1 mg/mL hepatic microsomes
Experimental: Mouse liver microsome (MLM) half-life measurements were performed by Scripps Florida Pharmacology Core, according to their protocols [Lamberto et al 2017]. 1 mg/mL hepatic microsomes was used to test compounds.
To assess whether E6R may be suitable for testing the effect of HDAC inhibition via new mechanisms in mouse, the half-life […] and intrinsic clearance (Clint) of this compound was first measured using a standard microsomal metabolic assay where sunitinib was used as a control [Lamberto et al 2017]. In this setting, compound degradation is induced by concentrated microsomes isolated from mouse liver. In particular, these hepatic extracts contain the cytochrome P450 system that is primarily responsible for first pass metabolism in vivo.

Chain of Sin3 PAH2/Ume6 SID interaction (P22579 402-473): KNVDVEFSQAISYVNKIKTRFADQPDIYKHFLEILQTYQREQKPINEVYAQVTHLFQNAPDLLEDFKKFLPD
Chain of Sc Sin3 PAH2-Ume6 SID (TAMRA-labeled) interaction (P22579 402-473): as above

SMILES: C[C@H](NC(=O)c1c(O)n2ccccc2nc1=O)c1ccccc1 [E6S]
effect on expression of CDKN1A, SOCS3 and EGR1 [1]: only perturbed expression of two of the tested downstream genes
IC50 [2]: 597 µM
IC50 [3]: 155 µM and 174 µM
Ki ([3]; inhibitory concentration (Ki), from Example 6 IC50, assuming competitive inhibition): ~30 µM
Ki ([3]; inhibitory concentrations (Ki), from Example 6A IC50, assumption of competitive inhibition): 38.5 µM

SMILES: O=C(CCCCCCC(=O)Nc1ccccc1)NO [SAHA, suberoylanilide hydroxamic acid, reference compound]
tolerability and body weight of xenografted mice ([4]; daily): did not affect mice weight; also recorded: well-tolerated
growth of neuroblastoma tumors compared to vehicle ([4]; daily intraperitoneally 10 days): significantly reduced the growth
effect on expression of CDKN1A, SOCS3 and EGR1 [1]: derepressed
head-twitch behavior after chronic treatment [5]: reduced DOI-induced head-twitch behavior in WT, but not in HDAC2 cKO mice; also recorded: reduces head-twitch response (HTR) behavior

SMILES: O=C(CCCCC[C@@H]1NC(=O)[C@H]2CCCCN2C(=O)[C@H](Cc2ccccc2)NC(=O)[C@H](Cc2ccccc2)NC1=O)C1CO1 (stereo partly shown) [TRX, trapoxin A] (cyclo(FF[dPip][Aoe(9ξ)]))
inhibition of HDAC enzymatic activity [6]: systematically reduced HDAC activity
effect on expression of CDKN1A, SOCS3 and EGR1 [1]: derepressed
effect on CAR1 and SPO13 expression ([7]; 250 μM): consistently derepressed
effect on all Rpd3-regulated loci ([7]; FIG. 3I): activated all Rpd3-regulated loci
CYH sensitivity [8]: induced
Rpd3-sensitive acid phosphatase activity [9]: induced

half-life in mouse liver microsomes [10]: ~10 min
SMILES: CCN(CC)CCNC(=O)c1c(C)[nH]c(/C=C2\C(=O)Nc3ccc(F)cc32)c1C [sunitinib, reference compound]
